Results reported in patent US9809623B2, “α4β7 peptide monomer and dimer antagonists” (Protagonist Therapeutics, Inc., priority 2014, dated 2017).
pIC50: −log10 of the molar value. Numbered stars: 1 amine (or outer) side, 2 acyl side, 3 side chain; on linkers, the order of the positions; unused ones are H or OH. Bridge positions count the residues as written; N and C are the ends. Square brackets hold non-standard residues; d marks the D form. Peptide text beside a SMILES is read from it. I, II: the chains in the order shown. 1Nal = N[C@@H](Cc1cccc2ccccc12)C(=O)O; 2Nal = N[C@@H](Cc1ccc2ccccc2c1)C(=O)O; Diglycolyl = O=C(COCC(=O)[*:2])[*:1]; NMeR = CN[C@@H](CCCNC(=N)N)C(=O)O; Tic = O=C(O)[C@@H]1Cc2ccccc2CN1; Pen = CC(C)(S)[C@H](N)C(=O)O

Each compound was assayed against α4β7 (Homo sapiens, UniProt P13612+P26010) (assay: α4β7-MAdCAM Cell Adhesion Assay (RPMI 8866 human cells)). Conditions: Table 3-B, Potency (α4β7); range classes; read-out: α4β7 cell (Hu) IC50.
Chain of α4β7 (P13612 34-1032): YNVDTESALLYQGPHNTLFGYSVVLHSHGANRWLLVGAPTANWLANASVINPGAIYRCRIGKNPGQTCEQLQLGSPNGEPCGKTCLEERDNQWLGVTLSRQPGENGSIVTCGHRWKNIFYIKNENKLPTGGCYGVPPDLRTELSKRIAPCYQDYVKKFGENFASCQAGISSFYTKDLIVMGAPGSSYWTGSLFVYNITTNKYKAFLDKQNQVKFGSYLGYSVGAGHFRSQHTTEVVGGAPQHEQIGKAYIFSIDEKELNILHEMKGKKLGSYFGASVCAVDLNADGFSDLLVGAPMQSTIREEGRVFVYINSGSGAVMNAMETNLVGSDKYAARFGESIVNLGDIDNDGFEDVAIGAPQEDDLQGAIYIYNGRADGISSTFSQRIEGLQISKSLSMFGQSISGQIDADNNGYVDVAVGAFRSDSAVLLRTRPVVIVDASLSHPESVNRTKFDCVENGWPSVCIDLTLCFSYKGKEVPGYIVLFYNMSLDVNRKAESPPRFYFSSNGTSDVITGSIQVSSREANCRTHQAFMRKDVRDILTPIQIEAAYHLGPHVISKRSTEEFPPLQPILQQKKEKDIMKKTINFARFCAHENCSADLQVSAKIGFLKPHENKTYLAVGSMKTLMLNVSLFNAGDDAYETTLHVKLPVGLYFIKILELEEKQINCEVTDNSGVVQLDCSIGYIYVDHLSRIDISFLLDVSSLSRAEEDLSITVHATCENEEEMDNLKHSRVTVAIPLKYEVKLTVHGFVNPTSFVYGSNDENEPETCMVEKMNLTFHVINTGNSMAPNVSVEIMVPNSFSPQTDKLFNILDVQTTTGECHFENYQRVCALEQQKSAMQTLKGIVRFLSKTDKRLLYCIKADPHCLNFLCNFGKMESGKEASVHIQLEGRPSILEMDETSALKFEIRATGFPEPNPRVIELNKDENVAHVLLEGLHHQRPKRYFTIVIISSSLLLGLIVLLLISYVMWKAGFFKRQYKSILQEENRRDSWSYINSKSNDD
Chain of α4β7 (P26010 20-798): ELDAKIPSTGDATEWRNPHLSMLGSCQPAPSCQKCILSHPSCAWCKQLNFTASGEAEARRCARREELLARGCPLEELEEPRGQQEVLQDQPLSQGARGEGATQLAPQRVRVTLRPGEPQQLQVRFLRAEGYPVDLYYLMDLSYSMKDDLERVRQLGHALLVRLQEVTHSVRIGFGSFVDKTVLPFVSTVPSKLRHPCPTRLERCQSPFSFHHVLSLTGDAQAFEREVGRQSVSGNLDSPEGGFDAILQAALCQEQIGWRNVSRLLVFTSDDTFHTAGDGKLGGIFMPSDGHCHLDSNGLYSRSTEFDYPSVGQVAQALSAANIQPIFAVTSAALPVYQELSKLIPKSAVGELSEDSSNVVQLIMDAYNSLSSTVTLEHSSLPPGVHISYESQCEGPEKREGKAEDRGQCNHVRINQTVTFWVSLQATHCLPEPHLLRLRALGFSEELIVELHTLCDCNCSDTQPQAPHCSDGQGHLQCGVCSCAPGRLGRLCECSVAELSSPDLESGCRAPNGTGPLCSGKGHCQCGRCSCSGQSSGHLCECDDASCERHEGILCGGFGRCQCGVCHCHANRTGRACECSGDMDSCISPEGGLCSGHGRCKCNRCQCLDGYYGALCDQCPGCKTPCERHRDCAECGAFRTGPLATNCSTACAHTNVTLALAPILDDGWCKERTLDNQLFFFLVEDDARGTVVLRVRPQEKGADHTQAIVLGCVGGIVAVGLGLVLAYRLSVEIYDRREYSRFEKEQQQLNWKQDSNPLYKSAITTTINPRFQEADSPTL
Format: cell-based
Set-up: host or cells: RPMI 8866 human B lymphoblastoid cells
Method in brief: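 Adhesion read-out: MTT absorbance at 570 nm minus no-cell wells, after three washes. Plates coated with rh MAdCAM-1/Fc received peptide dilutions plus 200,000 RPMI 8866 cells in Mn2+ (1 mM)-supplemented DMEM, 0.1% BSA, HEPES pH 7, incubated 30-45 min, 37 °C.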

SMILES | pIC50
CC(=O)N[C@@H]1C(=O)N(C)[C@@H](CCCNC(=N)N)C(=O)N[C@@H](CO)C(=O)N[C@@H](CC(=O)O)C(=O)N[C@@H]([C@@H](C)O)C(=O)N[C@@H](CC(C)C)C(=O)N[C@H](C(=O)N[C@@H](Cc2c[nH]c3ccccc23)C(=O)N2Cc3ccccc3C[C@H]2C(=O)N[C@H](CCCCNC(=O)COCC(=O)NCCCC[C@@H](NC(=O)[C@@H]2Cc3ccccc3CN2C(=O)[C@H](Cc2c[nH]c3ccccc23)NC(=O)[C@H]2NC(=O)[C@H](CC(C)C)NC(=O)[C@H]([C@@H](C)O)NC(=O)[C@H](CC(=O)O)NC(=O)[C@H](CO)NC(=O)[C@H](CCCNC(=N)N)N(C)C(=O)[C@@H](NC(C)=O)C(C)(C)SSC2(C)C)C(N)=O)C(N)=O)C(C)(C)SSC1(C)C [compound 109] (I: Ac-[Pen][NMeR]SDTL[Pen]W[Tic][dK]-NH2 / II: Ac-[Pen][NMeR]SDTL[Pen]W[Tic][dK]-NH2; disulfide I:1-I:7, II:1-II:7; linker I:10-II:10 via Diglycolyl) | 6.30 to 7.00
CC(=O)N[C@@H]1C(=O)N(C)[C@@H](CCCNC(=N)N)C(=O)N[C@@H](CO)C(=O)N[C@@H](CC(=O)O)C(=O)N[C@@H]([C@@H](C)O)C(=O)N[C@@H](CC(C)C)C(=O)N[C@H](C(=O)N[C@@H](Cc2c[nH]c3ccccc23)C(=O)N[C@H](Cc2c[nH]c3ccccc23)C(=O)N[C@H](CCCCNC(=O)COCC(=O)NCCCC[C@@H](NC(=O)[C@@H](Cc2c[nH]c3ccccc23)NC(=O)[C@H](Cc2c[nH]c3ccccc23)NC(=O)[C@H]2NC(=O)[C@H](CC(C)C)NC(=O)[C@H]([C@@H](C)O)NC(=O)[C@H](CC(=O)O)NC(=O)[C@H](CO)NC(=O)[C@H](CCCNC(=N)N)N(C)C(=O)[C@@H](NC(C)=O)C(C)(C)SSC2(C)C)C(N)=O)C(N)=O)C(C)(C)SSC1(C)C [compound 110] (I: Ac-[Pen][NMeR]SDTL[Pen]W[dW][dK]-NH2 / II: Ac-[Pen][NMeR]SDTL[Pen]W[dW][dK]-NH2; disulfide I:1-I:7, II:1-II:7; linker I:10-II:10 via Diglycolyl) | 7.60 to 8.00
CC(=O)N[C@@H]1C(=O)N(C)[C@@H](CCCNC(=N)N)C(=O)N[C@@H](CO)C(=O)N[C@@H](CC(=O)O)C(=O)N[C@@H]([C@@H](C)O)C(=O)N[C@@H](CC(C)C)C(=O)N[C@H](C(=O)N[C@@H](Cc2cccc3ccccc23)C(=O)N[C@H](Cc2ccccc2)C(=O)N[C@H](CCCCNC(=O)COCC(=O)NCCCC[C@@H](NC(=O)[C@@H](Cc2ccccc2)NC(=O)[C@H](Cc2cccc3ccccc23)NC(=O)[C@H]2NC(=O)[C@H](CC(C)C)NC(=O)[C@H]([C@@H](C)O)NC(=O)[C@H](CC(=O)O)NC(=O)[C@H](CO)NC(=O)[C@H](CCCNC(=N)N)N(C)C(=O)[C@@H](NC(C)=O)C(C)(C)SSC2(C)C)C(N)=O)C(N)=O)C(C)(C)SSC1(C)C [compound 111] (I: Ac-[Pen][NMeR]SDTL[Pen][1Nal][dF][dK]-NH2 / II: Ac-[Pen][NMeR]SDTL[Pen][1Nal][dF][dK]-NH2; disulfide I:1-I:7, II:1-II:7; linker I:10-II:10 via Diglycolyl) | 6.30 to 7.00
CC(=O)N[C@@H]1C(=O)N(C)[C@@H](CCCNC(=N)N)C(=O)N[C@@H](CO)C(=O)N[C@@H](CC(=O)O)C(=O)N[C@@H]([C@@H](C)O)C(=O)N[C@@H](CC(C)C)C(=O)N[C@H](C(=O)N[C@@H](Cc2cccc3ccccc23)C(=O)N[C@H](Cc2c[nH]cn2)C(=O)N[C@H](CCCCNC(=O)COCC(=O)NCCCC[C@@H](NC(=O)[C@@H](Cc2c[nH]cn2)NC(=O)[C@H](Cc2cccc3ccccc23)NC(=O)[C@H]2NC(=O)[C@H](CC(C)C)NC(=O)[C@H]([C@@H](C)O)NC(=O)[C@H](CC(=O)O)NC(=O)[C@H](CO)NC(=O)[C@H](CCCNC(=N)N)N(C)C(=O)[C@@H](NC(C)=O)C(C)(C)SSC2(C)C)C(N)=O)C(N)=O)C(C)(C)SSC1(C)C [compound 112] (I: Ac-[Pen][NMeR]SDTL[Pen][1Nal][dH][dK]-NH2 / II: Ac-[Pen][NMeR]SDTL[Pen][1Nal][dH][dK]-NH2; disulfide I:1-I:7, II:1-II:7; linker I:10-II:10 via Diglycolyl) | 7.00 to 7.30
CC(=O)N[C@@H]1C(=O)N(C)[C@@H](CCCNC(=N)N)C(=O)N[C@@H](CO)C(=O)N[C@@H](CC(=O)O)C(=O)N[C@@H]([C@@H](C)O)C(=O)N[C@@H](CC(C)C)C(=O)N[C@H](C(=O)N[C@@H](Cc2cccc3ccccc23)C(=O)N[C@H](CC(C)C)C(=O)N[C@H](CCCCNC(=O)COCC(=O)NCCCC[C@@H](NC(=O)[C@@H](CC(C)C)NC(=O)[C@H](Cc2cccc3ccccc23)NC(=O)[C@H]2NC(=O)[C@H](CC(C)C)NC(=O)[C@H]([C@@H](C)O)NC(=O)[C@H](CC(=O)O)NC(=O)[C@H](CO)NC(=O)[C@H](CCCNC(=N)N)N(C)C(=O)[C@@H](NC(C)=O)C(C)(C)SSC2(C)C)C(N)=O)C(N)=O)C(C)(C)SSC1(C)C [compound 113] (I: Ac-[Pen][NMeR]SDTL[Pen][1Nal][dL][dK]-NH2 / II: Ac-[Pen][NMeR]SDTL[Pen][1Nal][dL][dK]-NH2; disulfide I:1-I:7, II:1-II:7; linker I:10-II:10 via Diglycolyl) | 6.00 to 6.30
CC(=O)N[C@@H]1C(=O)N(C)[C@@H](CCCNC(=N)N)C(=O)N[C@@H](CO)C(=O)N[C@@H](CC(=O)O)C(=O)N[C@@H]([C@@H](C)O)C(=O)N[C@@H](CC(C)C)C(=O)N[C@H](C(=O)N[C@@H](Cc2cccc3ccccc23)C(=O)N[C@H](CCCNC(=N)N)C(=O)N[C@H](CCCCNC(=O)COCC(=O)NCCCC[C@@H](NC(=O)[C@@H](CCCNC(=N)N)NC(=O)[C@H](Cc2cccc3ccccc23)NC(=O)[C@H]2NC(=O)[C@H](CC(C)C)NC(=O)[C@H]([C@@H](C)O)NC(=O)[C@H](CC(=O)O)NC(=O)[C@H](CO)NC(=O)[C@H](CCCNC(=N)N)N(C)C(=O)[C@@H](NC(C)=O)C(C)(C)SSC2(C)C)C(N)=O)C(N)=O)C(C)(C)SSC1(C)C [compound 114] (I: Ac-[Pen][NMeR]SDTL[Pen][1Nal][dR][dK]-NH2 / II: Ac-[Pen][NMeR]SDTL[Pen][1Nal][dR][dK]-NH2; disulfide I:1-I:7, II:1-II:7; linker I:10-II:10 via Diglycolyl) | 6.30 to 7.00
CC(=O)N[C@@H]1C(=O)N(C)[C@@H](CCCNC(=N)N)C(=O)N[C@@H](CO)C(=O)N[C@@H](CC(=O)O)C(=O)N[C@@H]([C@@H](C)O)C(=O)N[C@@H](CC(C)C)C(=O)N[C@H](C(=O)N[C@@H](Cc2cccc3ccccc23)C(=O)N2Cc3ccccc3C[C@H]2C(=O)N[C@H](CCCCNC(=O)COCC(=O)NCCCC[C@@H](NC(=O)[C@@H]2Cc3ccccc3CN2C(=O)[C@H](Cc2cccc3ccccc23)NC(=O)[C@H]2NC(=O)[C@H](CC(C)C)NC(=O)[C@H]([C@@H](C)O)NC(=O)[C@H](CC(=O)O)NC(=O)[C@H](CO)NC(=O)[C@H](CCCNC(=N)N)N(C)C(=O)[C@@H](NC(C)=O)C(C)(C)SSC2(C)C)C(N)=O)C(N)=O)C(C)(C)SSC1(C)C [compound 115] (I: Ac-[Pen][NMeR]SDTL[Pen][1Nal][Tic][dK]-NH2 / II: Ac-[Pen][NMeR]SDTL[Pen][1Nal][Tic][dK]-NH2; disulfide I:1-I:7, II:1-II:7; linker I:10-II:10 via Diglycolyl) | 6.30 to 7.00
CC(=O)N[C@@H]1C(=O)N(C)[C@@H](CCCNC(=N)N)C(=O)N[C@@H](CO)C(=O)N[C@@H](CC(=O)O)C(=O)N[C@@H]([C@@H](C)O)C(=O)N[C@@H](CC(C)C)C(=O)N[C@H](C(=O)N[C@@H](Cc2cccc3ccccc23)C(=O)N[C@@H](C(=O)N[C@H](CCCCNC(=O)COCC(=O)NCCCC[C@@H](NC(=O)[C@H](NC(=O)[C@H](Cc2cccc3ccccc23)NC(=O)[C@H]2NC(=O)[C@H](CC(C)C)NC(=O)[C@H]([C@@H](C)O)NC(=O)[C@H](CC(=O)O)NC(=O)[C@H](CO)NC(=O)[C@H](CCCNC(=N)N)N(C)C(=O)[C@@H](NC(C)=O)C(C)(C)SSC2(C)C)[C@H](C)O)C(N)=O)C(N)=O)[C@H](C)O)C(C)(C)SSC1(C)C [compound 116] (I: Ac-[Pen][NMeR]SDTL[Pen][1Nal][dT][dK]-NH2 / II: Ac-[Pen][NMeR]SDTL[Pen][1Nal][dT][dK]-NH2; disulfide I:1-I:7, II:1-II:7; linker I:10-II:10 via Diglycolyl) | 7.00 to 7.30
CC(=O)N[C@@H]1C(=O)N(C)[C@@H](CCCNC(=N)N)C(=O)N[C@@H](CO)C(=O)N[C@@H](CC(=O)O)C(=O)N[C@@H]([C@@H](C)O)C(=O)N[C@@H](CC(C)C)C(=O)N[C@H](C(=O)N[C@@H](Cc2ccc3ccccc3c2)C(=O)N[C@H](Cc2ccccc2)C(=O)N[C@H](CCCCNC(=O)COCC(=O)NCCCC[C@@H](NC(=O)[C@@H](Cc2ccccc2)NC(=O)[C@H](Cc2ccc3ccccc3c2)NC(=O)[C@H]2NC(=O)[C@H](CC(C)C)NC(=O)[C@H]([C@@H](C)O)NC(=O)[C@H](CC(=O)O)NC(=O)[C@H](CO)NC(=O)[C@H](CCCNC(=N)N)N(C)C(=O)[C@@H](NC(C)=O)C(C)(C)SSC2(C)C)C(N)=O)C(N)=O)C(C)(C)SSC1(C)C [compound 117] (I: Ac-[Pen][NMeR]SDTL[Pen][2Nal][dF][dK]-NH2 / II: Ac-[Pen][NMeR]SDTL[Pen][2Nal][dF][dK]-NH2; disulfide I:1-I:7, II:1-II:7; linker I:10-II:10 via Diglycolyl) | 6.30 to 7.00
CC(=O)N[C@@H]1C(=O)N(C)[C@@H](CCCNC(=N)N)C(=O)N[C@@H](CO)C(=O)N[C@@H](CC(=O)O)C(=O)N[C@@H]([C@@H](C)O)C(=O)N[C@@H](CC(C)C)C(=O)N[C@H](C(=O)N[C@@H](Cc2ccc3ccccc3c2)C(=O)N[C@H](Cc2c[nH]cn2)C(=O)N[C@H](CCCCNC(=O)COCC(=O)NCCCC[C@@H](NC(=O)[C@@H](Cc2c[nH]cn2)NC(=O)[C@H](Cc2ccc3ccccc3c2)NC(=O)[C@H]2NC(=O)[C@H](CC(C)C)NC(=O)[C@H]([C@@H](C)O)NC(=O)[C@H](CC(=O)O)NC(=O)[C@H](CO)NC(=O)[C@H](CCCNC(=N)N)N(C)C(=O)[C@@H](NC(C)=O)C(C)(C)SSC2(C)C)C(N)=O)C(N)=O)C(C)(C)SSC1(C)C [compound 118] (I: Ac-[Pen][NMeR]SDTL[Pen][2Nal][dH][dK]-NH2 / II: Ac-[Pen][NMeR]SDTL[Pen][2Nal][dH][dK]-NH2; disulfide I:1-I:7, II:1-II:7; linker I:10-II:10 via Diglycolyl) | 7.30 to 7.60
